“Also recorded” adds a separate entry of the source. Starred links: 1 amine or outer side, 2 acyl side, 3 side chain; linkers in the order of their positions; H or OH if unused. Positions of bridges follow the written chain, without caps; N, C: chain ends. Non-standard residues stand in square brackets, D forms with d. Residues, ends and D or L forms follow the SMILES beside them. Chains are numbered I, II in the order given. Actinocin(9to1) = Cc1c2oc3c(C)ccc(C(=O)[*:1])c3nc-2c(C(=O)[*:2])c(N)c1=O; NMeV = CN[C@H](C(=O)O)C(C)C; Sar = CNCC(=O)O
Assays:
[1] = system: SP-B mRNA expression by A549 cells; experiment: SP-B mRNA expression by A549 cells (RT-PCR); assay type: cell-based; details: actinomycin D 1 μg/ml, concomitant incubation with LDs
Protocol: (§1) Monolayer cultures of A549 cells were incubated with ADRP-LDs labeled with either tritium or GFP as follows: ^3H-labeled (10,000 dpm/min/20 μg triacylglycerol) ADRP-LDs were isolated from fetal rat lung fibroblasts, as described above. Where indicated, incubations were carried out in the presence of either actinomycin D or cyclohexamide to determine if de novo mRNA or protein synthesis, respectively, was involved in LD processing. Elsewhere, incubations were conducted in the presence of ADRP antibody (rabbit anti-ADRP IgG kindly provided by Dr. Constantine Londos, NIDDK) to determine the specificity of the ADRP effect on LD uptake. At the end of the incubation, the cells were processed for ^3H-satPC (Floros et al. (1987) J Biol Chem. 262(28): 13592-13598), expression of SP-B by RT-PCR and Western Blot (Rehan et al. (2002) Mol Genet Metab. 76(1): 46-56), or for confocal microscopy (see below for method).
(§2) Western blot and RT-PCR for SP-B were performed as described by Rehan et al. (2002) Mol Genet Metab. 76(1): 46-56.

[2] = system: SP-B protein levels in A549 cells; experiment: SP-B protein levels in A549 cells (Western blot); assay type: cell-based; details: cycloheximide 5 :g/ml, concomitant with ADRP-LDs
Protocol: as §1, §2

| Compound | effect on ADRP induction of SP-B mRNA expression [1] | effect on ADRP-LD-stimulated SP-B protein increase [2] |
| --- | --- | --- |
| Cc1c2oc3c(C)ccc(C(=O)N[C@@H]4C(=O)N[C@H](C(C)C)C(=O)N5CCC[C@H]5C(=O)N(C)CC(=O)N(C)[C@@H](C(C)C)C(=O)O[C@@H]4C)c3nc-2c(C(=O)N[C@@H]2C(=O)N[C@H](C(C)C)C(=O)N3CCC[C@H]3C(=O)N(C)CC(=O)N(C)[C@@H](C(C)C)C(=O)O[C@@H]2C)c(N)c1=O [Actinomycin D] (I: T[dV]P[Sar][NMeV] / II: T[dV]P[Sar][NMeV]; ester I:1-I:C, II:1-II:C; linker I:N-II:N via Actinocin(9to1)) | blocked | – |
| C[C@@H]1C[C@@H]([C@H](O)CC2CC(=O)NC(=O)C2)C(=O)[C@@H](C)C1 [cycloheximide] | – | blocked; also recorded: inhibited |

Source: US8066971B2, “Targeting pulmonary epithelium using ADRP” (Los Angeles Biomedical Reseach Institute at Harbor UCLA …, priority 2005, dated 2011)
